What was measured:
[1] = tested on: licking reflex in mice; assay: Antalgic: hot-plate test, licking reflex; type: in vivo; settings: Mus musculus, plate heated at 65° C., read-out: AD50 in the hot-plate test (licking reflex)
Experimental: (§1) The following tests were carried out:
(§2) b. hot-plate test: licking reflex in mice on a plate heated at 65° C.

[2] = tested on: writhing in mice; assay: Antalgic: writhing test in mice (intraperitoneal acetic acid); type: in vivo; settings: Mus musculus, oral route, read-out: AD50 on administration of acetic acid
Experimental: as §1
(§3) a. writhing test in mice, by the oral route (on intraperitoneal administration of acetic acid),

[3] = tested on: group toxicity of amphetamine in mice; assay: Antagonistic activity on the group toxicity of amphetamine in mice; type: in vivo; settings: Mus musculus, read-out: AD50, antagonistic activity on the group toxicity of amphetamine
[4] = Acute toxicity in mice; type: in vivo; settings: mouse, in vivo, single administration
Text: (§4) Acute toxicity in mice by the sub-cutaneous and oral routes and in rats by the oral route was investigated by determination of the death rate following a single administration of increasing dosages.
(§5) Symbol > means that the LD50 is not attained at the dosage indicated.

[5] = tested on: rats; assay: Oral subacute toxicity in rats; type: in vivo; settings: 1 month old rats, up to a daily dosage of 100 mg/kg
Text: Oral subacute toxicity in rats was investigated by determination of the death rate (if any), of the change in the weight of some organs, and by hematologic examinations, and the like.
Subacute toxicity in 1 month old rats, with compounds Nos. 11 and 18

[6] = tested on: aggressiveness subsequent to apomorphine injection in rats; assay: Anti-aggressive: aggressiveness subsequent to apomorphine injection, rats; type: in vivo; settings: Rattus norvegicus, oral, apomorphine injection 1 mg/kg, read-out: Oral AD50, apomorphine, in rats
Experimental: b. aggressiveness subsequent to apomorphine injection (1 mg/kg, in vivo) in rats,
(§6) In all cases, the AD50 values were determined by the oral route.

[7] = tested on: narcosis induced by ethanol in mice; assay: Effect on narcosis induced by ethanol; type: in vivo
Text: d. Effect on narcosis induced by pentobarbital and ethanol in mice.

[8] = tested on: aggressiveness subsequent to electric shocks in mice; assay: Anti-aggressive: aggressiveness subsequent to electric shocks, mice; type: in vivo; settings: Mus musculus, oral, read-out: Oral AD50, electric shock in mice
Experimental: (§7) a. aggressiveness subsequent to electric shocks in mice and rats,
as §6

[9] = tested on: aggressiveness in mice-killing rats; assay: Anti-aggressive: aggressiveness in mice-killing rats; type: in vivo; settings: Rattus norvegicus, oral, read-out: Oral AD50, mice-killing rats
Experimental: d. aggressiveness in mice-killing rats.
as §6

[10] = tested on: motor activity in mice; assay: Motor-stimulant or -depressant activity, light-beam activometer; type: in vivo; settings: sub-cutaneous or oral routes
Experimental: The motor-stimulant or -depressant activities were investigated in mice by the sub-cutaneous or oral routes by means of an activometric technique (light-beam activometer).
The dosages which increase or decrease the number of cases over the 50% limit were determined with respect to concomitantly effected reference tests.

[11] = Acute toxicity in rats; type: in vivo; settings: rat, in vivo, po, single administration
Text: as §4, §5

[12] = tested on: antalgic activity in mice; assay: Antalgic activity overall (writhing and hot-plate); type: in vivo
Experimental: as §1, §3, §2

[13] = tested on: aggressiveness subsequent to extended isolation in mice; assay: Anti-aggressive: aggressiveness subsequent to extended isolation, mice; type: in vivo; settings: Mus musculus, oral, read-out: Oral AD50, isolated mice
Experimental: c. aggressiveness subsequent to extended isolation, in mice,
as §6

[14] = tested on: aggressiveness subsequent to electric shocks in rats; assay: Anti-aggressive: aggressiveness subsequent to electric shocks, rats; type: in vivo; settings: Rattus norvegicus, oral, read-out: Oral AD50, electric shock in rats
Experimental: as §7, §6

[15] = tested on: psychotropic activity; assay: Psychotropic activity, overall profile; settings: in vivo
Text: The psychotropic and anti-inflammatory effects of the derivatives of this invention were investigated according to several methods described hereinafter.

With `Cn1c(=O)c2c(nc3n2CCCN3CCN2CCN(c3cccc(Cl)c3)CC2)n(C)c1=O` [Compound 18, 9-(2-4-(m-chlorophenyl)piperazin-1-yl!-ethyl)1,3-dimethyl-6,7,8,9-tetrahydropyrimidino(2,1-f)-purine-2,4-dione] the ED50 [1] was 8.5 mg/kg, the ED50 [2] was 13 mg/kg and the ED50 [3] was 20 mg/kg. The LD50 ([4]; po, read-out: LD50, oral route, mice) was > 300 mg/kg, the LD50 ([4]; sc, read-out: LD50, s.c. route, mice) was > 300 mg/kg and the “death rate (fatal issue)” value [5] was “No fatal issue was noted”. For the same molecule, the ED50 [6] was 85 mg/kg, the ethanol-induced narcosis-potentiating effect [7] was “potentiates ethanol-induced narcosis” and the ED50 [8] was 15 mg/kg. The ED50 [9] was 22 mg/kg, the ED50 ([10]; Mus musculus, read-out: AD50, sedative action) was 7.5 mg/kg and the “sedative action (in words)” value [10] was “more sedative”. The LD50 [11] was > 100 mg/kg, the “antalgic activity (in words)” value [12] was “more antalgic” and the ED50 [13] was 9 mg/kg. For the same molecule, the ED50 [14] was 45 mg/kg and the “psychotropic activity (in words)” value [15] was “has the same characteristics”.

Source: patent US4073908A, “8-Amino-theophylline derivatives and therapeutic applications thereof” (Laboratoire le Brun S.A., priority 1975, dated 1978)
